Assays:
[1] = target: EML4-ALK wt v1 in NIH-3T3 cells (Homo sapiens, UniProt Q9UM73)
[2] = target: T1, human recombinant wild-type ALK kinase domain (amino acids 1093-1411) (Homo sapiens, UniProt Q9UM73); assay: ALK enzyme assay 2 (microfluidic mobility shift assay); assay type: biochemical;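 also: kinase reaction run 1 h at room temperature, conversion quantified by electrophoretic separation of fluorescent peptide substrate from phosphorylated product, about 15-20% turnover without inhibitor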
T1 construct: ALK kinase domain (amino acids 1093-1411); made in house
T1 sequence (Q9UM73 1093-1411): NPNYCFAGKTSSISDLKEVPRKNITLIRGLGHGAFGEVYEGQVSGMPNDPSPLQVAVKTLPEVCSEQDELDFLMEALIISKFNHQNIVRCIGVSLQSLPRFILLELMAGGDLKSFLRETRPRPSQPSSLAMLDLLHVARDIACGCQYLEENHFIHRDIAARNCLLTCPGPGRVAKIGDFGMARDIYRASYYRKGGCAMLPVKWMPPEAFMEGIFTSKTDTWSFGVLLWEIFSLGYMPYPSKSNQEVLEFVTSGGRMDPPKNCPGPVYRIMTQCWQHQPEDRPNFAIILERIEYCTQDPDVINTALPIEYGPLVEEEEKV
Experimental: The reactions were incubated for 1 h at room temperature, stopped by the addition of 0.1 M EDTA, pH 8, and the extent of reactions (˜15-20% conversion with no inhibitor) was determined after electrophoretic separation of the fluorescently labeled peptide substrate and phosphorylated product on an LabChip EZ Reader II (Caliper Life Sciences, Hopkinton, Mass.).

EML4-ALK wt v1 in NIH-3T3 cells, sequence (Q9UM73 with tags, fused parts or gaps): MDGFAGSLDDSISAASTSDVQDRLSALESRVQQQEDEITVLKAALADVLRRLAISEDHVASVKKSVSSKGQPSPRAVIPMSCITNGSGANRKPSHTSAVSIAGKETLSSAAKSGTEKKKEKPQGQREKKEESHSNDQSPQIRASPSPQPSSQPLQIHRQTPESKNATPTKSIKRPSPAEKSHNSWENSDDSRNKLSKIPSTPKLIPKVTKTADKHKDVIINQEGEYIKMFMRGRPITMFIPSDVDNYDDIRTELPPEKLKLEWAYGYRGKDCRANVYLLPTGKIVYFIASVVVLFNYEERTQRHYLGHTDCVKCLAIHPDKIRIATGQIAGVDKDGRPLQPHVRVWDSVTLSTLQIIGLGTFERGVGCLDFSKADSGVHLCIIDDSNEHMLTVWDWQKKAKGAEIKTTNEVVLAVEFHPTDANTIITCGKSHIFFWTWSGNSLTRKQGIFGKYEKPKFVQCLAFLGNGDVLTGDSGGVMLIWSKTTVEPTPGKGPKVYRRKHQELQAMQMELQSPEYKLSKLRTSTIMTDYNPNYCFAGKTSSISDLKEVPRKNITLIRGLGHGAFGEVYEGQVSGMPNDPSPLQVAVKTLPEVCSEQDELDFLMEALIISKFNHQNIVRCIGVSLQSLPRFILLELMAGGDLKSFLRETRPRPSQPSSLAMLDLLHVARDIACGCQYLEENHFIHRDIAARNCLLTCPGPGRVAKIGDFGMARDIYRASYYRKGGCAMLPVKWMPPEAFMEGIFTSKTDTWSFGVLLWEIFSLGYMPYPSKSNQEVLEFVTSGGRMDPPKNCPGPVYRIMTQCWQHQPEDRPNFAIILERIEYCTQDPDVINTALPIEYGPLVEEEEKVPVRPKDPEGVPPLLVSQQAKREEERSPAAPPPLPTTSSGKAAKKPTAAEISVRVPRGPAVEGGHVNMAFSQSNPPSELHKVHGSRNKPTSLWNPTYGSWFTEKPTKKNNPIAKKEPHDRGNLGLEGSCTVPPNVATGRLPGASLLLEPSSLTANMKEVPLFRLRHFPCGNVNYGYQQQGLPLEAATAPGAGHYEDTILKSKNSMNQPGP

C[C@@H](N)c1ccc(-c2cnc(N)c(O[C@H](C)c3cc(F)ccc3-n3nccn3)c2)cc1 [Example 88, 5-{4-[(1R)-1-aminoethyl]phenyl}-3-{(1R)-1-[5-fluoro-2-(2H-1,2,3-triazol-2-yl)phenyl]ethoxy}-pyridin-2-amine]
IC50 [1]: 2.61 nM
Ki [2]: < 0.2 nM

C[C@@H](Oc1cc(-c2ccc3c(c2)CNC3=O)cnc1N)c1cc(F)ccc1-n1nccn1 [Example 89, 5-(6-amino-5-{(1R)-1-[5-fluoro-2-(2H-1,2,3-triazol-2-yl)phenyl]ethoxy}pyridin-3-yl)-2,3-dihydro-1H-isoindol-1-one]
IC50 [1]: 43.6 nM
Ki [2]: 0.22 nM

CNC(=O)c1nc(C)c(-c2cnc(N)c(O[C@H](C)c3cc(F)ccc3-n3nccn3)c2)s1 [Example 90, 5-(6-amino-5-{(1R)-1-[5-fluoro-2-(2H-1,2,3-triazol-2-yl)phenyl]ethoxy}pyridin-3-yl)-N,4-dimethyl-1,3-thiazole-2-carboxamide]
IC50 [1]: 58.9 nM
Ki [2]: 1.2 nM

Cc1nn(CC(O)CO)c(C)c1-c1cnc(N)c(O[C@H](C)c2cc(F)ccc2-n2nccn2)c1 (stereo partly drawn) [Example 91, 3-[4-(6-amino-5-{(1R)-1-[5-fluoro-2-(2H-1,2,3-triazol-2-yl)phenyl]ethoxy}pyridin-3-yl)-3,5-dimethyl-1H-pyrazol-1-yl]propane-1,2-diol]
IC50 [1]: 0.793 nM
Ki [2]: < 0.2 nM

CNC(=O)c1ncc(-c2cnc(N)c(O[C@H](C)c3cc(F)ccc3-n3nccn3)c2)cn1 [Example 92, 5-(6-amino-5-{(1R)-1-[5-fluoro-2-(2H-1,2,3-triazol-2-yl)phenyl]ethoxy}pyridin-3-yl)-N-methylpyrimidine-2-carboxamide]
IC50 [1]: 729 nM
Ki [2]: 7.2 nM

COc1nc(CO)ccc1-c1cnc(N)c(O[C@H](C)c2cc(F)ccc2-n2nccn2)c1 [Example 93, (6′-amino-5′-{(1R)-1-[5-fluoro-2-(2H-1,2,3-triazol-2-yl)phenyl]ethoxy}-2-methoxy-3,3′-bipyridin-6-yl)methanol]
IC50 [1]: 12.7 nM
Ki [2]: 0.43 nM

CC(O)c1ncc(-c2cnc(N)c(O[C@H](C)c3cc(F)ccc3-n3nccn3)c2)s1 (stereo partly drawn) [Example 94, 1-[5-(6-amino-5-{(1R)-1-[5-fluoro-2-(2H-1,2,3-triazol-2-yl)phenyl]ethoxy}pyridin-3-yl)-1,3-thiazol-2-yl]ethanol]
IC50 [1]: 22.1 nM
Ki [2]: < 0.49 nM

Cc1nn(CS(C)(=O)=O)c(C)c1-c1cnc(N)c(O[C@H](C)c2cc(F)ccc2-n2nccn2)c1 [Example 95, 5-{3,5-dimethyl-1-[(methylsulfonyl)methyl]-1H-pyrazol-4-yl}-3-{(1R)-1-[5-fluoro-2-(2H-1,2,3-triazol-2-yl)phenyl]ethoxy}pyridin-2-amine]
IC50 [1]: 13.8 nM
Ki [2]: 0.2 nM

Cc1nc(C(C)O)sc1-c1cnc(N)c(O[C@H](C)c2cc(F)ccc2-n2nccn2)c1 (stereo partly drawn) [Example 96, 1-[5-(6-amino-5-{(1R)-1-[5-fluoro-2-(2H-1,2,3-triazol-2-yl)phenyl]ethoxy}pyridin-3-yl)-4-methyl-1,3-thiazol-2-yl]ethanol]
IC50 [1]: 17.1 nM
Ki [2]: < 0.2 nM

C[C@@H](Oc1cc(-c2cnc(CO)n2C)cnc1N)c1cc(F)ccc1-n1nccn1 [Example 97, [5-(6-amino-5-{(1R)-1-[5-fluoro-2-(2H-1,2,3-triazol-2-yl)phenyl]ethoxy}pyridin-3-yl)-1-methyl-1H-imidazol-2-yl]methanol]
IC50 [1]: 41.3 nM
Ki [2]: 0.327 nM

C[C@@H](Oc1cc(-c2cnn([C@H]3CCCNC3)c2)cnc1N)c1cc(F)ccc1-n1nccn1 [Example 98, 3-{(1R)-1-[5-fluoro-2-(2H-1,2,3-triazol-2-yl)phenyl]ethoxy}-5-[1-(piperidin-3-yl)-1H-pyrazol-4-yl]pyridin-2-amine]
IC50 [1]: 10.8 nM
Ki [2]: < 0.2 nM

C[C@@H](Oc1cc(-c2ccc3c(c2)CCS3(=O)=O)cnc1N)c1cc(F)ccc1-n1nccn1 [Example 99, 5-(1,1-dioxido-2,3-dihydro-1-benzothiophen-5-yl)-3-{(1R)-1-[5-fluoro-2-(2H-1,2,3-triazol-2-yl)phenyl]ethoxy}pyridin-2-amine]
IC50 [1]: 13.2 nM
Ki [2]: 1.1 nM

CNCc1ccc(-c2cnc(N)c(O[C@H](C)c3cc(F)ccc3-n3nccn3)c2)c(OC)n1 [Example 100, 5-{(1R)-1-[5-fluoro-2-(2H-1,2,3-triazol-2-yl)phenyl]ethoxy}-2′-methoxy-6′-[(methylamino)methyl]-3,3′-bipyridin-6-amine]
IC50 [1]: 12.2 nM
Ki [2]: < 0.2 nM

COc1ccc(S(C)(=O)=O)cc1-c1cnc(N)c(O[C@H](C)c2cc(F)ccc2-n2nccn2)c1 [Example 101, 3-{(1R)-1-[5-fluoro-2-(2H-1,2,3-triazol-2-yl)phenyl]ethoxy}-5-[2-methoxy-5-(methylsulfonyl)phenyl] pyridin-2-amine]
IC50 [1]: 3.21 nM
Ki [2]: < 0.2 nM

COc1ccc(F)cc1C(C)Oc1nc(-c2cc(S(C)(=O)=O)cnc2OC)cnc1N (stereo not drawn) [Example 102, 3-[1-(5-fluoro-2-methoxyphenyl)ethoxy]-5-[2-methoxy-5-(methylsulfonyl)pyridin-3-yl]pyrazin-2-amine]
IC50 [1]: 89.3 nM
Ki [2]: 1.21 nM

Cc1nc(C(C)(C)O)sc1-c1cnc(N)c(O[C@H](C)c2cc(F)ccc2-n2nccn2)n1 [Example 103, 2-[5-(5-amino-6-{(1R)-1-[5-fluoro-2-(2H-1,2,3-triazol-2-yl)phenyl]ethoxy}pyrazin-2-yl)-4-methyl-1,3-thiazol-2-yl]propan-2-ol]
IC50 [1]: 15 nM
Ki [2]: < 0.2 nM

C[C@@H](Oc1cc(-c2csc(CO)n2)cnc1N)c1cc(F)ccc1-n1nccn1 [Example 105, [4-(6-amino-5-{(1R)-1-[5-fluoro-2-(2H-1,2,3-triazol-2-yl)phenyl]ethoxy}pyridin-3-yl)-1,3-thiazol-2-yl]methanol]
IC50 [1]: 166 nM
Ki [2]: 4.1 nM

C[C@@H](Oc1cc(-c2cnc(CO)s2)cnc1N)c1cc(F)ccc1-n1nccn1 [Example 106, [5-(6-amino-5-{(1R)-1-[5-fluoro-2-(2H-1,2,3-triazol-2-yl)phenyl]ethoxy}pyridin-3-yl)-1,3-thiazol-2-yl]methanol]
IC50 [1]: 21.5 nM
Ki [2]: 0.68 nM

Cc1nc(CO)sc1-c1cnc(N)c(O[C@H](C)c2cc(F)ccc2-n2nccn2)c1 [Example 107, [5-(6-amino-5-{(1R)-1-[5-fluoro-2-(2H-1,2,3-triazol-2-yl)phenyl]ethoxy}pyridin-3-yl)-4-methyl-1,3-thiazol-2-yl]methanol]
IC50 [1]: 9.92 nM
Ki [2]: < 0.2 nM

CCc1nc(CO)sc1-c1cnc(N)c(O[C@H](C)c2cc(F)ccc2-n2nccn2)c1 [Example 108, [5-(6-amino-5-{(1R)-1-[5-fluoro-2-(2H-1,2,3-triazol-2-yl)phenyl]ethoxy}pyridin-3-yl)-4-ethyl-1,3-thiazol-2-yl]methanol]
IC50 [1]: 9.38 nM
Ki [2]: < 0.2 nM

C[C@@H](Oc1cc(-c2cnc(CS(C)(=O)=O)s2)cnc1N)c1cc(F)ccc1-n1nccn1 [Example 109, 3-{(1R)-1-[5-fluoro-2-(2H-1,2,3-triazol-2-yl)phenyl]ethoxy}-5-{2-[(methylsulfonyl)methyl]-1,3-thiazol-5-yl}pyridin-2-amine]
IC50 [1]: 9.15 nM
Ki [2]: 0.58 nM

C[C@@H](Oc1cc(-c2ccc3c(c2)S(=O)(=O)CC3O)cnc1N)c1cc(F)ccc1-n1nccn1 (stereo partly drawn) [Example 110, 6-(6-amino-5-{(1R)-1-[5-fluoro-2-(2H-1,2,3-triazol-2-yl)pheny]ethoxy}pyridin-3-yl)-2,3-dihydro-1-benzothiophene-3-ol 1,1-dioxide]
IC50 [1]: 34.4 nM
Ki [2]: 0.47 nM

C[C@@H](Oc1cc(-c2ccc(C(C)(C)O)c(S(C)(=O)=O)c2)cnc1N)c1cc(F)ccc1-n1nccn1 [Example 111, 2-[4-(6-amino-5-{(1R)-1-[5-fluoro-2-(2H-1,2,3-triazol-2-yl)phenyl]ethoxy}pyridin-3-yl)-2-(methylsulfonyl)phenyl]propan-2-ol]
IC50 [1]: 0.622 nM
Ki [2]: < 0.2 nM

C[C@@H](Oc1cc(-c2cccc(P(C)(C)=O)c2)cnc1N)c1cc(F)ccc1-n1nccn1 [Example 112, 5-[3-(dimethylphosphoryl)phenyl]-3-{(1R)-1-[5-fluoro-2-(2H-1,2,3-triazol-2-yl)phenyl]ethoxy}pyridin-2-amine]
IC50 [1]: 38.1 nM
Ki [2]: 0.203 nM

C[C@@H](Oc1cc(-c2cccc(S(N)(=O)=O)c2)cnc1N)c1cc(F)ccc1-n1nccn1 [Example 113, 3-(6-amino-5-{(1R)-1-[5-fluoro-2-(2H-1,2,3-triazol-2-yl)phenyl]ethoxy}pyridin-3-yl)benzenesulfonamide]
IC50 [1]: 10.1 nM
Ki [2]: 0.26 nM

Cc1cc(-c2cnc(N)c(O[C@H](C)c3cc(F)ccc3-n3nccn3)c2)cc(P(C)(C)=O)c1 [Example 114, 5-[3-(dimethylphosphoryl)-5-methylphenyl]-3-{(1R)-1-[5-fluoro-2-(2H-1,2,3-triazol-2-yl)phenyl]ethoxy}pyridin-2-amine]
IC50 [1]: 89.6 nM
Ki [2]: 1.3 nM

Cc1nc(-c2cnc(N)c(O[C@H](C)c3cc(F)ccc3-n3nccn3)c2)sc1C(C)O (stereo partly drawn) [Example 115, 1-[2-(6-amino-5-{(1R)-1-[5-fluoro-2-(2H-1,2,3-triazol-2-yl)phenyl]ethoxy}pyridin-3-yl)-4-methyl-1,3-thiazol-5-yl]ethanol]
IC50 [1]: 289 nM
Ki [2]: 4.37 nM

C[C@@H](Oc1cc(-c2c[nH]nc2C#N)cnc1N)c1cc(F)ccc1-n1nccn1 [Example 116, 4-(6-amino-5-{(1R)-1-[5-fluoro-2-(2H-1,2,3-triazol-2-yl)phenyl]ethoxy}pyridin-3-yl)-1H-pyrazole-3-carbonitrile]
IC50 [1]: 4.17 nM
Ki [2]: < 0.2 nM

Cc1ccc(-c2cnc(N)c(O[C@H](C)c3cc(F)ccc3-n3nccn3)c2)cn1 [Example 117, 5-{(1R)-1-[5-fluoro-2-(2H-1,2,3-triazol-2-yl)phenyl]ethoxy}-6′-methyl-3,3′-bipyridin-6-amine]
IC50 [1]: 10.3 nM
Ki [2]: 0.77 nM

COc1cc(C(N)=O)ccc1-c1cnc(N)c(O[C@H](C)c2cc(F)ccc2-n2nccn2)c1 [Example 118, 4-(6-amino-5-{(1R)-1-[5-fluoro-2-(2H-1,2,3-triazol-2-yl)phenyl]ethoxy}pyridin-3-yl)-3-methoxybenzamide]
IC50 [1]: 9.29 nM
Ki [2]: 0.26 nM
